Data from paper PMC516463 (Evidence-based Complementary and Alternative Medicine, 2004).

Test system: HIV-1
Settings: 10 μM, control inhibitor of infection

Cc1cn([C@H]2C[C@H](N=[N+]=[N-])[C@@H](CO)O2)c(=O)[nH]c1=O [AZT]
Inhibition of HIV-1 infection of MAGIC-5B cells (in words): totally suppressed
